These results are taken from publication PMC11349198, “The activation cascade of the broad-spectrum antiviral bemnifosbuvir characterized at atomic resolution” (PLOS Biology, 2024).

The target in assay [1] is T1, HINT1 (Homo sapiens, UniProt P49773).
T1 construct: N-terminal 6xHis with TEV site, tag cut; E. coli; homodimer, 126 residues visible
Kind of assay: ITC. Conditions: 1-site model. Format: binding.

Assay [2] addresses T2, ADALP1 (Homo sapiens, UniProt Q6DHV7).
T2 construct: gene MAPDA; N-terminal 6xHis with TEV site, tag cut; E. coli; monomer; Zn; crystals grown with trace alpha-chymotrypsin
T2 sequence (Q6DHV7 1-355): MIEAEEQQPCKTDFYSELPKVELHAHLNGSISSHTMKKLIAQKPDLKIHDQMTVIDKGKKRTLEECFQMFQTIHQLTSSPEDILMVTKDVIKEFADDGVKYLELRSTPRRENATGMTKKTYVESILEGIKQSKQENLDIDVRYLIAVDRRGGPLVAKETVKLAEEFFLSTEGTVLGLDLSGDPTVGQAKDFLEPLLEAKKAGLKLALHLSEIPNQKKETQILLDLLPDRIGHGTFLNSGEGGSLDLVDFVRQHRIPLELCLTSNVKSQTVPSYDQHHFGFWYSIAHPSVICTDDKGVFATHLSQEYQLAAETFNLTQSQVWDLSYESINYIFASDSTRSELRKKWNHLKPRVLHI
Kind of assay: X-ray crystal structure, […] Å. It counts as binding. The note with it: co-crystallized with AT-8003 (10 mM), pH 5.3 to 6.3; Zn2+; active site.

T1 sequence (P49773 whole entry): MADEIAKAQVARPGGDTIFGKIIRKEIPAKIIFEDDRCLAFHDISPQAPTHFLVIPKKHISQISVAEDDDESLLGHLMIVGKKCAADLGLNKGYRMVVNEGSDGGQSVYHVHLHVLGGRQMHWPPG

Turning to `Nc1ncnc2c1ncn2[C@@H]1O[C@H](COP(=O)(O)O)[C@@H](O)[C@H]1O` [AMP], the Ka in assay [1] is given as 1.7 10^4. Regarding `C[C@@]1(F)[C@H](O)[C@@H](COP(=O)(O)O)O[C@H]1n1cnc2c(=O)[nH]c(N)nc21` [AT-8001], the “X-ray crystal structure, 2.44 Å” value in assay [2] is recorded as “the product AT-8001 was found bound at the active site”.
